The values that follow come from ChEMBL document CHEMBL5543095 (Eur J Med Chem, 2024).

Active and inactive are the calls of the source. The calls are words filed in the database; no cut-off is given here.

Data set [1] has as its system A549. Put plainly: Antiproliferative activity against human A549 cells assessed as inhibition of cell growth inhibition incubated for 48 hrs by CCK-8 assay. To be noted: A549, 48 h. Format: functional, cell-based. On the technique in general: Tetrazolium dyes change colour on reduction, which living cells bring about.
Data set [2] in a line: Cytotoxicity against HUVEC cells assessed as inhibition of cell growth inhibition incubated for 48 hrs by CCK-8 assay. It is filed as toxicity, cell-based. Particulars: human.
For data set [3], the system named is U-87 MG. Briefly: Inhibition of cell migration in human U87 cells assessed as reduction in wound healing measured after 24 to 48 hrs by scratch assay. Format: functional, cell-based. Particulars: U-87MG ATCC, dose 0-1 µM, time 24-48 hrs.
For data set [4], the system named is U-87 MG. Put plainly: Induction of apoptosis in human U87 cells assessed as early apoptotic cells at 0.3125 uM incubated for 48 hrs by Annexin V-FITC/PI staining based flow cytometry analysis (reference value: 6.25%). Format: functional, U-87MG ATCC. Background: Flow cytometry measures light scatter and fluorescence of single cells or particles in a stream.
Data set [5] has as its system U-87 MG. Put plainly: Induction of apoptosis in human U87 cells assessed as late apoptotic cells at 0.3125 uM incubated for 48 hrs by Annexin V-FITC/PI staining based flow cytometry analysis (reference value: 2.08%). It is filed as functional, U-87MG ATCC.
The test system of data set [6] is U-87 MG. Briefly: Induction of apoptosis in human U87 cells assessed as early apoptotic cells at 0.625 uM incubated for 48 hrs by Annexin V-FITC/PI staining based flow cytometry analysis (reference value: 6.25%). Format: functional, U-87MG ATCC.
In data set [7] the test system is U-87 MG. Briefly: Induction of apoptosis in human U87 cells assessed as late apoptotic cells at 0.625 uM incubated for 48 hrs by Annexin V-FITC/PI staining based flow cytometry analysis (reference value: 2.08%). Format: functional, U-87MG ATCC.
Data set [8] has as its system U-87 MG. Briefly: Induction of apoptosis in human U87 cells assessed as live cells at 1.25 uM incubated for 48 hrs by Annexin V-FITC/PI staining based flow cytometry analysis (reference value: 91.7%). It is filed as functional, U-87MG ATCC.
Data set [9] relates to U-87 MG. Put plainly: Induction of apoptosis in human U87 cells assessed as late apoptotic cells at 1.25 uM incubated for 48 hrs by Annexin V-FITC/PI staining based flow cytometry analysis (reference value: 2.08%). It is filed as functional, U-87MG ATCC.
Data set [10] deals with U-87 MG. Briefly: Induction of apoptosis in human U87 cells assessed as live cells at 2.5 uM incubated for 48 hrs by Annexin V-FITC/PI staining based flow cytometry analysis (reference value: 91.7%). Format: functional, U-87MG ATCC.
The subject of data set [11] is U-87 MG. Briefly: Induction of apoptosis in human U87 cells assessed as early apoptotic cells at 2.5 uM incubated for 48 hrs by Annexin V-FITC/PI staining based flow cytometry analysis (reference value: 6.25%). Format: functional, U-87MG ATCC.
In data set [12] the test system is U-87 MG. Briefly: Induction of apoptosis in human U87 cells assessed as late apoptotic cells at 2.5 uM incubated for 48 hrs by Annexin V-FITC/PI staining based flow cytometry analysis (reference value: 2.08%). Format: functional, U-87MG ATCC.
Data set [13] deals with GL261-Luc. Put plainly: Antitumor activity against mouse GL261-Luc cells implanted in C57BL/6 mouse assessed as reduction in tumor cell growth at 10 mg/kg, iv administered every other day on day 0,2,4,6,8,10 and measured after 12 days by H and E staining based analysis. Format: functional, organism-based. To be noted: time 12.0 day.
Data set [14] relates to GL261-Luc. Put plainly: Antivascular activity against mouse GL261-Luc cells implanted in C57BL/6 mouse assessed as reduction in tumor microvessel density at 5 to 10 mg/kg, iv administered every other day on day 0,2,4,6,8,10 and measured after 12 days by IHC staining based analysis. It is filed as functional, organism-based. Particulars: dose 5-10 mg/kg, time 12.0 day.
A short description of data set [15]: Toxicity in C57BL/6 mouse implanted with mouse GL261-Luc cells assessed as histopathological changes in spleen at 5 to 10 mg/kg, iv administered every other day on day 0,2,4,6,8,10 and measured after 12 days by H and E staining based analysis. To be noted: in vivo, 288 h, dose 5-10 mg/kg, time 12 day. Format: organism-based.
Data set [16] relates to P-gp. Put plainly: Substrate activity at P-gp in MDCK-MDR1 cells assessed as efflux ratio of apparent permeability across basolateral to apical side over apical to basolateral side at 10 uM incubated for 90 mins by LC-MS/MS analysis. It is filed as ADME, cell-based, Canis lupus familiaris. To be noted: dog.
In data set [17] the test system is U-87MG ATCC. Briefly: Downregulation of TUBB gene expression in human U87 cells by transcriptome analysis. It is filed as functional, cell-based.
The subject of data set [18] is U-87MG ATCC. Briefly: Upregulation of CORO1A gene expression in human U87 cells by transcriptome analysis. Format: functional, cell-based.
In data set [19] the target is T1, Tubulin (Homo sapiens) (UniProt P68371+Q9H4B7+P0DPH7+P68366+Q13509+Q71U36+P04350+Q3ZCM7+P07437+P68363+Q9BQE3+Q6PEY2+Q13885+Q9BVA1+Q9BUF5). Briefly: Inhibition of tubulin (unknown origin) polymerization assessed as reduction in polymerization rate by fluorescence based analysis. It is filed as protein-complex assay. To be noted: dose 6-12 µM.
Data set [20] concerns the target T1, Tubulin (Homo sapiens). Put plainly: Binding affinity to colchicine binding site of tubulin in human U87 cells assessed as inhibition of EBI-tubulin adduct formation by measuring disappearance of adduct bands pretreated for 2 hrs followed by EBI addition and measured after 2 hrs by Western blot analysis. It is filed as cell-based. Particulars: dose 10-100 µM, time 4.0 hrs.

Take `Cc1ccc2ccc3c(c2n1)OC(N)=C(C#N)C3c1ccccc1` (stereo not given): the IC50 in data set [1] was determined as 880 nM. The IC50 at 48 h in [2] was more than 10000 nM. The inhibition result in data set [3] and in [19] was “Dose-Dependent Effect” throughout. Further, the Activity in [4] was 7.01%; in data set [5] it was 4.87%; in [6], 16.1%; in [7] it was 7.88%; in [8], 73.9%; in data set [9], 7.82%. For the same molecule, the Activity in data set [10] is 62.5%; in [11] it was 20.6%; in data set [12], 16.8%; in data set [15], “Non-Toxic”; in [20], “Dose-Dependent Effect”. Besides, the outcome in data set [13], in data set [14], in [17] and in [18] was Active. Also, the efflux ratio at 1.5 h, 10 µM in data set [16] was found to be 0.76.

A word on the IC50: it is the midpoint of a concentration-inhibition curve. By efflux ratio is commonly meant a quotient of directional permeabilities that is used to spot active efflux.
